Test results published in US7470664.
Like-named read-outs stand apart in the source and are kept apart here.

Details: 19-membered ring

| SMILES | ring closure, isolated yield (from C=CCCCOC(=O)N[C@@H](CCCC)C(=O)N1C[C@H](OC(=O)N2Cc3cccc(C=C)c3C2)C[C@H]1C(=O)OC, rcm bond, Zhan catalyst I (RC-301), DCE, 5.5 mM, 100.0 °C) [%] | ring closure, isolated yield (from COC(=O)[C@@H]1C[C@@H](OC(=O)N2Cc3cccc(C#CCCCOC(=O)N[C@H](C(=O)O)C(C)(C)C)c3C2)C[NH2+]1, amide bond, HATU/Et3N/DMAP, DCM, 42.0 mM, 25.0 °C, 2 steps) [%] |
| --- | --- | --- |
| CCCC[C@@H]1NC(=O)OCCCC=Cc2cccc3c2CN(C3)C(=O)O[C@@H]2C[C@@H](C(=O)OC)N(C2)C1=O | 79 | – |
| COC(=O)[C@@H]1C[C@@H]2CN1C(=O)[C@H](C(C)(C)C)NC(=O)OCCCC#Cc1cccc3c1CN(C3)C(=O)O2 | – | 43 |
